Results on 2 compounds are retold here after PubChem BioAssay AID1845200 (Molecular Pharmacology Branch, DTP, NCI, 2023).

For this experiment, the system named is ASPS-1 complex tumor spheroids, viability. In words: Anticancer human tumor ASPS-1 cell line growth inhibition.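 On all read-outs here: spheroids exposed to agents for 7 days after 3 days of growth.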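 On viability, T/C: 100% = DMSO vehicle treated spheroids.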 The following applies: for viability, T/C: stronger effect = lower value. An outline of the steps:
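Complex tumor spheroids combined malignant cells with endothelial cells and mesenchymal stem cells. DNA-damaging drugs and DNA repair inhibitors were tested alone and in combination, at half-log dilutions down from clinical Cmax (top 10 microM if Cmax unknown), 0.25% DMSO final.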

Values joined by “and” are separate entries in the source; they are usually repeats but may differ in a detail not shown here. Equal values may be shown once. Some results are limits rather than exact numbers.

Usually IC50 stands for the concentration at which inhibition is half-maximal. For orientation: viability, T/C means the ratio of treated to control.

In the case of `COc1ccc([C@@H](O)c2cc(-c3ncnc4cc(N5CCOCC5)ccc34)c(F)cc2Cl)nn1` + COc1cc2c(cc1O)CCNC21CSC2c3c(OC(C)=O)c(C)c4c(c3C(COC1=O)N1C(O)C3Cc5cc(C)c(OC)c(O)c5C(C21)N3C)OCO4, the IC50 (curve of first compound, second compound 30 pM) was found to be 6.58 µM; the 50% inhibitory concentration (IC50) (curve of first compound, second compound 94.9 pM) came out at 4.8 µM; the IC50 (curve of first compound, second compound 0.0003 µM) came out at 1.52 µM; the IC50 (curve of first compound, second compound 0.000949 µM) was 0.379 µM; the half-inhibitory concentration (IC50) (curve of first compound, second compound 0.003 µM) was under 0.0316 µM. The viability, T/C by setting is: (second compound 30 pM, first compound 0.0316 µM) 103%; (second compound 30 pM, first compound 0.1 µM) 106%; (second compound 30 pM, first compound 0.316 µM) 103%; (second compound 30 pM, first compound 1 µM) 93.2%; (second compound 30 pM, first compound 3.16 µM) 77%; (second compound 30 pM, first compound 10 µM) 34.7%. The viability, T/C is 108% (second compound 94.9 pM, first compound 0.0316 µM); 106% (second compound 94.9 pM, first compound 0.1 µM); 101% (second compound 94.9 pM, first compound 0.316 µM); 96.7% (second compound 94.9 pM, first compound 1 µM); 62.6% (second compound 94.9 pM, first compound 3.16 µM); 27.5% (second compound 94.9 pM, first compound 10 µM). In addition, the viability, T/C runs as follows: (second compound 0.0003 µM, first compound 0.0316 µM) 103%; (second compound 0.0003 µM, first compound 0.1 µM) 108%; (second compound 0.0003 µM, first compound 0.316 µM) 97.7%; (second compound 0.0003 µM, first compound 1 µM) 68.3%; (second compound 0.0003 µM, first compound 3.16 µM) 18.7%; (second compound 0.0003 µM, first compound 10 µM) 5.37%. The viability, T/C was 79.3% (second compound 0.000949 µM, first compound 0.0316 µM); 81% (second compound 0.000949 µM, first compound 0.1 µM); 55% (second compound 0.000949 µM, first compound 0.316 µM); 17.5% (second compound 0.000949 µM, first compound 1 µM); 1.86% (second compound 0.000949 µM, first compound 3.16 µM); 0.35% (second compound 0.000949 µM, first compound 10 µM). The viability, T/C reads like this: (second compound 0.003 µM, first compound 0.0316 µM) 22.5%; (second compound 0.003 µM, first compound 0.1 µM) 19.1%; (second compound 0.003 µM, first compound 0.316 µM) 9.89%; (second compound 0.003 µM, first compound 1 µM) 1.71%; (second compound 0.003 µM, first compound 3.16 µM) 1.27%; (second compound 0.003 µM, first compound 10 µM) 1.18%.
As for `COc1cc(C)[nH]c(=O)c1CN1CCc2c(Cl)cc(C(OC)C3COC3)c(Cl)c2C1=O` (configuration not stated), the viability, T/C is 105% and 103% and 99% (compound 0.0316 µM); 108% and 106% and 105% (compound 0.1 µM); 107% and 102% and 100% (compound 0.316 µM); 106% and 97.9% and 96.5% (compound 1 µM); 104% and 102% and 98% (compound 3.16 µM); 99.3% and 104% and 97.8% (compound 10 µM). Besides, the IC50 (curve of compound) is over 10 µM.
